Assay results reported in article PMC8062632, “Structural studies of phosphorylation-dependent interactions between the V2R receptor and arrestin-2” (Nature Communications, 2021).

Legend:
Type in all cases: cell-based
[1] = system: V2R-4 (V2R-T360A); experiment: FlAsH-BRET recruitment of c-Raf-1 to arrestin2; conditions: HEK293 cells, Argipressin 10 μM, 37 °C, 10 min
Protocol: (§1) The interaction between arrestin2 and c-Raf-1 was measured by the FlAsH-BRET method. […] Data are expressed as relative values of ΔBRET ratio with the mean ± SEM of three independent experiments (n = 3). […] Source data are provided in the Source. Data file.
(§2) After 24 h of transfection, the cells were detached and distributed into 96-well plates at a density of ~25,000 cells per well. After another 24 h incubation at 37 °C, the cells were labeled FlAsH-EDT2 for 40 min at 37 °C and washed twice with Tyrode’s buffer (140 mM NaCl, 2.7 mM KCl, 1 mM CaCl2, 12 mM NaHCO3, 5.6 mM D-glucose, 0.5 mM MgCl2, 0.37 mM NaH2PO4, and 25 mM HEPES, pH = 7.4) and stimulated with or without Argipressin (final concentration of 10 μM) at 37 °C for 10 min Luciferase substrate coelenterazine-h was added at a final concentration of 5 μM before light emissions were recorded using a Mithras LB940 microplate reader (Berthold Technologies) equipped with BRET filter sets. The BRET signal was determined by calculating the ratio of the light intensity emitted by YFP ([…]) over the light intensity emitted by Rluc ([…]). Source data are provided in a Source Data file.

[2] = system: V2R-WT; experiment: FlAsH-BRET recruitment of c-Raf-1 to arrestin2; conditions: HEK293 cells, Argipressin 10 μM, 37 °C, 10 min
Protocol: as §1, §2

[3] = system: V2R-T360A (V2Rpp-4 site); experiment: arrestin2 recruitment BRET assay (V2R-Rluc / arrestin2-YFP); conditions: HEK293 cells, 37 °C, 10 min, normalized to maximal response of V2R-WT
Protocol: (§3) After 24 h of transfection, the cells were detached and distributed into 96-well plates at a density of ~25,000 cells per well. After another 24 h incubation at 37 °C, the cells were washed twice with Tyrode’s buffer (140 mM NaCl, 2.7 mM KCl, 1 mM CaCl2, 12 mM NaHCO3, 5.6 mM D-glucose, 0.5 mM MgCl2, 0.37 mM NaH2PO4, and 25 mM HEPES, pH = 7.4) and incubated with vehicle or different concentration ligands (Argipressin) at 37 °C for 10 min Luciferase substrate coelenterazine-h was added at a final concentration of 5 μM before light emissions were recorded using a Mithras LB940 microplate reader (Berthold Technologies) equipped with BRET filter sets. The BRET signal was determined by calculating the ratio of the light intensity emitted by YFP (530/20 nm) over the light intensity emitted by Rluc (485/20 nm). Source data are provided in a Source Data file.
(§4) Supplementary Fig. 14. Surface expression and arrestin2 recruitment toward different V2R phosphor- […]
(§5) a-b). Elisa experiments to assay the expression levels of the wild type and indicated mutants of V2R or V2R-Rluc in HEK293 cells. Data from three independent experiments (n=3) are presented as mean ± SD. Statistical differences between WT and mutations were determined by two-sided one-way ANOVA with Tukey test. “ns”: the […]
(§6) c). The vasopressin-induced arrestin2 recruitment to different V2R phospho-deficient mutants were compared with V2R-WT, examined by BRET assay in a concentration dependent manner. n = 3 biologically independent replicates were examined for three independent experiments. Data (means ± SEM) of each mutant were normalized to […]
(§7) maximal response of V2R-WT. d). Statistical analysis of the Emax and pEC50 of vasopressin induced arrestin2 recruitment to V2R WT or V2R […]

[4] = system: wild-type V2R and V2R mutants; experiment: as above; conditions: HEK293 cells; different V2R mutants compared with wild-type V2R; 37 °C, 10 min
Protocol: as §3, §4, §5, §6, §7

[5] = system: V2R-S363A/S364A (V2Rpp-6-7 site); experiment: as above; conditions: HEK293 cells, 37 °C, 10 min, normalized to maximal response of V2R-WT
Protocol: as §3, §4, §5, §6, §7

[6] = system: V2R-S357A mutant (V2Rpp-3 site); experiment: as above; conditions: HEK293 cells, 37 °C, 10 min, normalized to maximal response of V2R-WT
Protocol: as §3, §4, §5, §6, §7

[7] = system: V2R-4 (V2R-T360A); experiment: FlAsH-BRET recruitment of MEK1 to arrestin2; conditions: HEK293 cells; for ΔBRET ratio, MEK1 recruitment to arrestin2: V2R-4, Argipressin 10 μM, 37 °C, 10 min
Protocol: (§8) The blue ball: K357 site in arrestin2; Yellow pentagram: the position of FlAsH labeled in MEK1. […] Data are expressed as ΔBRET ratio relative values and represent the mean ± SEM of three independent experiments (n = 3). […] Source data are provided in the Source Data file.
(§9) 24 h after transfection, the cells were detached and distributed into 96-well plates at a density of ~25,000 cells per well. After another 24 h of incubation at 37 °C, the cells were labeled FlAsH-EDT2 for 40 min at 37 °C and washed twice with Tyrode’s buffer (140 mM NaCl, 2.7 mM KCl, 1 mM CaCl2, 12 mM NaHCO3, 5.6 mM D-glucose, 0.5 mM MgCl2, 0.37 mM NaH2PO4, and 25 mM HEPES, pH = 7.4) and stimulated with or without Argipressin (final concentration of 10 μM) at 37 °C for 10 min Luciferase substrate coelenterazine-h was added at a final concentration of 5 μM before light emissions were recorded using a Mithras LB940 microplate reader (Berthold Technologies) equipped with BRET filter sets. The BRET signal was determined by calculating the ratio of the light intensity emitted by YFP ([…]) over the light intensity emitted by Rluc ([…]). Source data are provided in a Source Data file.

[8] = system: V2R-WT; experiment: FlAsH-BRET recruitment of MEK1 to arrestin2; conditions: HEK293 cells; for ΔBRET ratio, MEK1 recruitment to arrestin2: V2R-WT, Argipressin 10 μM, 37 °C, 10 min
Protocol: as §8, §9

[9] = system: V2R-1 (V2R-T347A); experiment: FlAsH-BRET recruitment of MEK1 to arrestin2; conditions: HEK293 cells; for ΔBRET ratio, MEK1 recruitment to arrestin2: V2R-1, Argipressin 10 μM, 37 °C, 10 min
Protocol: as §8, §9

[10] = system: V2R-3 (V2R-S357A); experiment: FlAsH-BRET recruitment of MEK1 to arrestin2; conditions: HEK293 cells; for ΔBRET ratio, MEK1 recruitment to arrestin2: V2R-3, Argipressin 10 μM, 37 °C, 10 min
Protocol: as §8, §9

[11] = system: V2R-6-7 (V2R-S363A/S364A); experiment: FlAsH-BRET recruitment of MEK1 to arrestin2; conditions: HEK293 cells; for ΔBRET ratio, MEK1 recruitment to arrestin2: V2R-6-7, Argipressin 10 μM, 37 °C, 10 min
Protocol: as §8, §9

vasopressin
ΔBRET ratio, c-Raf-1 recruitment to arrestin2 ([1]; Data1): 0.001 | ΔBRET ratio, c-Raf-1 recruitment to arrestin2 ([1]; Data2): 0.001 | ΔBRET ratio, c-Raf-1 recruitment to arrestin2 ([1]; Data3): 0 | ΔBRET ratio, c-Raf-1 recruitment to arrestin2 ([2]; Data1): 0.014 | ΔBRET ratio, c-Raf-1 recruitment to arrestin2 ([2]; Data2): 0.012 | ΔBRET ratio, c-Raf-1 recruitment to arrestin2 ([2]; Data3): 0.015 | Emax of arrestin2 recruitment compared to that of wild-type V2R [3]: approximately 30% | EC50 of vasopressin-induced V2R-arrestin2 interaction [4]: similar | Emax of arrestin2 recruitment compared to that of wild-type V2R [5]: approximately 30% | Emax of arrestin2 recruitment compared to that of wild-type V2R [6]: 60% | MEK1-arrestin2 association in response to vasopressin stimulation ([7]; T360A mutation of V2R, in words): almost abolished | ΔBRET ratio, MEK1 recruitment to arrestin2 ([7]; Data1): 0 | ΔBRET ratio, MEK1 recruitment to arrestin2 ([7]; Data2): -0.002 | ΔBRET ratio, MEK1 recruitment to arrestin2 ([7]; Data3): -0.003 | ΔBRET ratio, MEK1 recruitment to arrestin2 ([8]; Data1): 0.008 | ΔBRET ratio, MEK1 recruitment to arrestin2 ([8]; Data2): 0.005 | ΔBRET ratio, MEK1 recruitment to arrestin2 ([8]; Data3): 0.008 | recruitment of MEK1 to arrestin2 ([8]; wild-type V2 receptor, in words): significantly increased | ΔBRET ratio, MEK1 recruitment to arrestin2 ([9]; Data1): 0.008 | ΔBRET ratio, MEK1 recruitment to arrestin2 ([9]; Data2): 0.004 | ΔBRET ratio, MEK1 recruitment to arrestin2 ([9]; Data3): 0.005 | recruitment of MEK1 to arrestin2 ([9]; V2 receptor T347A mutant, in words): significantly increased | MEK1-arrestin2 association in response to vasopressin stimulation ([10]; S357A mutation of V2R, in words): almost abolished | ΔBRET ratio, MEK1 recruitment to arrestin2 ([10]; Data1): 0 | ΔBRET ratio, MEK1 recruitment to arrestin2 ([10]; Data2): 0.001 | ΔBRET ratio, MEK1 recruitment to arrestin2 ([10]; Data3): 0.001 | MEK1-arrestin2 association in response to vasopressin stimulation ([11]; S363A-S364A mutations of V2R, in words): almost abolished | ΔBRET ratio, MEK1 recruitment to arrestin2 ([11]; Data1): 0 | ΔBRET ratio, MEK1 recruitment to arrestin2 ([11]; Data2): 0.001 | ΔBRET ratio, MEK1 recruitment to arrestin2 ([11]; Data3): 0
